Source: patent US20240252502A1, “HDAC6 INHIBITORS FOR TREATMENT OF METABOLIC DISEASE AND HFPEF” (Tenaya Therapeutics, Inc., priority 2021, published 2024)

System: HFD/L-NAME mice (HFpEF model)
Assay: HFD/L-NAME HFpEF mouse model, TYA-11018 versus Empagliflozin
Type: in vivo
Settings: 15 mg/kg TYA-11018 or 10 mg/kg Empagliflozin orally once daily for 9 weeks
Experimental: After HFpEF phenotypes were established, mice received 15 mg/kg TYA-11018 or 10 mg/kg Empagliflozin, or vehicle orally once daily for 9 weeks. Health monitoring was performed weekly with body weights recorded. Glucose tolerance test was performed after 1st dose. Cardiac function was recorded by echocardiography after treatment for 9 weeks. End diastolic pressure (EDP) was measured by PV-Loop at terminal at 9 weeks after dosing.
Animals: Cohort of mice with established HFpEF phenotypes and age/sex matched wild type controls were used for dosing study. […] After acclimation for 1 week, one group of mice was fed with high fat diet containing 0.07% L-NAME (LabDiet 5G5V, St Louis, MO) for 15 weeks. The control group of mice were fed with normal chow (LabDiet 5053, St Louis, MO). […] Animals were housed in an animal research facility in accordance with the National Research Council of the National Academies guidelines for the care and use of laboratory animals.
A second group of mice was fed with standard chow for controls.
Transthoracic echocardiography was performed using a VisualSonics Vevo 2100 system equipped with MS400 transducer (Visual Sonics, Toronto, ON). LVEF and other indices of systolic function were obtained from short-axis M-mode scans at the midventricular level, as indicated by the presence of papillary muscles, in conscious, gently restrained mice. […]
Intraperitoneal glucose-tolerance tests were performed by injection of glucose (2 g/kg in saline) after 6 hour fasting (from 7 a.m. to 1 p.m.). Tail blood glucose levels (mg/dL) were measured by AimStrip Plus blood glucose strips used with the AimStrip Plus blood glucose monitoring system (Germaine Laboratories, San Antonio, TX) at 0 (baseline, before glucose dose), 15, 30, 45, 60 and 120 minutes after glucose administration.
The trachea was exposed by a midline incision from the base of the throat to just above the clavicle. […] The hemodynamic parameters were then recorded in close-chest mode. […]

OC[C@H]1O[C@@H](c2ccc(Cl)c(Cc3ccc(O[C@H]4CCOC4)cc3)c2)[C@H](O)[C@@H](O)[C@@H]1O [Empagliflozin, empagliflozin]
E/A: decreased
E/e′ ratio: decreased
end diastolic pressure (PV-Loop): reduced end diastolic pressure
